{"source": "paper PMC6202471", "about": "(CPT: Pharmacometrics & Systems Pharmacology, 2018)", "key": {"[1]": {"conditions": "cited from earlier work; for AUC, NCA results: trapezoidal rule with extrapolation to infinity"}, "[2]": {"conditions": "cited from earlier work; for f u,GW, unbound drug fraction in the gut wall: fixed to 1"}, "[3]": {"assay": "Semimechanistic population pharmacokinetic model", "conditions": "for CLINT,H, intrinsic hepatic clearance, SIR median: SIR 20,000 samples, 2,000 resamples; for CLINT,H, intrinsic hepatic clearance, SIR median / CLINT,GW, intrinsic gut wall clearance, SIR median / Q PER1, central to first peripheral compartment clearance, SIR median / V C, volume of central compartment, SIR median / V PER1, volume of first peripheral compartment, SIR median / V C, volume of central compartment, NONMEM mean θ estimate / V PER1, volume of first peripheral compartment, NONMEM mean θ estimate: norketamine values apparent; for CLINT,GW, intrinsic gut wall clearance, NONMEM mean θ estimate / CLINT,H, intrinsic hepatic clearance, NONMEM mean θ estimate: norketamine values apparent (F met set to 1)"}, "[4]": {"conditions": "cited from earlier work; for K a,TIC, absorption rate constant, fixed to a published value: FIXED in the model"}, "CYP2B6 [5]": {"molecular_target": "T1, CYP2B6 (Homo sapiens, UniProt P20813)", "T1 sequence (P20813 1-491)": "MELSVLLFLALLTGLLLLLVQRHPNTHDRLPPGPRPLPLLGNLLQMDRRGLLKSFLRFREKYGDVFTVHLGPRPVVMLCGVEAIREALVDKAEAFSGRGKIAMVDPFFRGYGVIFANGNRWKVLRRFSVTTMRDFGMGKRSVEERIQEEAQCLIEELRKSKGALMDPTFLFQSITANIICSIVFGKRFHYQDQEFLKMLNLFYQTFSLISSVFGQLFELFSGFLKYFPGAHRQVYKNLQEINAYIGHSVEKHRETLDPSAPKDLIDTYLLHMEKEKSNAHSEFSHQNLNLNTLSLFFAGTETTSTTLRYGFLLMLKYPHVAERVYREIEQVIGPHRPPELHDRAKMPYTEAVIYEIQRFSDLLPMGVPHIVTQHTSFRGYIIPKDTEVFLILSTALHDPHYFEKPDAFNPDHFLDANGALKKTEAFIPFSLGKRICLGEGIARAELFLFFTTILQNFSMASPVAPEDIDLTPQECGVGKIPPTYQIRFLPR", "conditions": "after administration of ticlopidine"}, "CYP2B6 [6]": {"molecular_target": "T1, CYP2B6", "conditions": "in vitro study; cited from earlier work"}, "[7]": {"conditions": "S-ketamine p.o. ticlopidine-phase"}}, "note": "Read-outs that look alike come from different tables or passages of the source."}
{"smiles": "CCC(C)n1ncn(-c2ccc(N3CCN(c4ccc(OCC5COC(Cn6cncn6)(c6ccc(Cl)cc6Cl)O5)cc4)CC3)cc2)c1=O", "note": "(stereo not drawn) [Itraconazole]", "values": [{"measurement": "Effect on plasma concentrations of orally administered S-ketamine", "setting": "[1]; CYP3A inhibitor pretreatment, healthy volunteers", "value": "no significant effect"}]}
{"smiles": "NC1(c2ccccc2Cl)CCCCC1=O", "note": "(stereo not drawn) [Norketamine, norketamine]", "values": [{"measurement": "f u,GW, unbound drug fraction in the gut wall", "setting": "[2]", "value": 1}, {"measurement": "f u,NK, unbound drug fraction in the blood", "setting": "[2]; norketamine", "value": 0.50}, {"measurement": "CLINT,H, intrinsic hepatic clearance, SIR median", "setting": "[3]", "value": 73.4, "unit": "L/h"}, {"measurement": "CLINT,GW, intrinsic gut wall clearance, SIR median", "setting": "[3]; SIR", "value": 46.5, "unit": "L/h"}, {"measurement": "Q PER1, central to first peripheral compartment clearance, SIR median", "setting": "[3]; SIR", "value": 20.1, "unit": "L/h"}, {"measurement": "V C, volume of central compartment, SIR median", "setting": "[3]; SIR", "value": 88, "unit": "L"}, {"measurement": "V PER1, volume of first peripheral compartment, SIR median", "setting": "[3]; SIR", "value": 88.8, "unit": "L"}, {"measurement": "Interindividual variability on CLINT,H, NONMEM estimate", "setting": "[3]; exponential IIV model", "value": 0.10}, {"measurement": "Interindividual variability on CLINT,H, SIR median", "setting": "[3]; exponential IIV model, SIR", "value": 0.10}, {"measurement": "V C, volume of central compartment, NONMEM mean θ estimate", "setting": "[3]; final model", "value": 88.4, "unit": "L"}, {"measurement": "V PER1, volume of first peripheral compartment, NONMEM mean θ estimate", "setting": "[3]; final model", "value": 88.9, "unit": "L"}, {"measurement": "CLINT,GW, intrinsic gut wall clearance, NONMEM mean θ estimate", "setting": "[3]; final model", "value": 44.4, "unit": "L/h"}, {"measurement": "CLINT,H, intrinsic hepatic clearance, NONMEM mean θ estimate", "setting": "[3]; final model", "value": 73.5, "unit": "L/h"}, {"measurement": "C max, NCA results", "setting": "[1]; S-ketamine i.v. placebo-phase", "value": 14, "unit": "ng/mL"}, {"measurement": "C max, NCA results", "setting": "[1]; S-ketamine p.o. placebo-phase", "value": 61, "unit": "ng/mL"}, {"measurement": "AUC, NCA results", "setting": "[1]; S-ketamine p.o. placebo-phase", "value": 292, "unit": "ng·h/mL"}, {"measurement": "C max, NCA results", "setting": "[1]; [7]", "value": 46, "unit": "ng/mL"}, {"measurement": "AUC, NCA results", "setting": "[1]; [7]", "value": 310, "unit": "ng·h/mL"}]}
{"smiles": "CN[C@]1(c2ccccc2Cl)CCCCC1=O", "note": "[S‐ketamine]", "values": [{"measurement": "f u,SK, unbound drug fraction in the blood", "setting": "[2]; S-ketamine", "value": 0.70}, {"measurement": "f u,GW, unbound drug fraction in the gut wall", "setting": "[2]", "value": 1}, {"measurement": "K a, absorption rate constant, SIR median", "setting": "[3]; SIR", "value": 1.78, "unit": "h⁻¹"}, {"measurement": "Q PER2, central to second peripheral compartment clearance, SIR median", "setting": "[3]; SIR", "value": 22.3, "unit": "L/h"}, {"measurement": "V PER2, volume of second peripheral compartment, SIR median", "setting": "[3]; SIR", "value": 180, "unit": "L"}, {"measurement": "CLINT,H, intrinsic hepatic clearance, SIR median", "setting": "[3]", "value": 304, "unit": "L/h"}, {"measurement": "CLINT,GW, intrinsic gut wall clearance, SIR median", "setting": "[3]; SIR", "value": 1.22, "unit": "L/h"}, {"measurement": "Q PER1, central to first peripheral compartment clearance, SIR median", "setting": "[3]; SIR", "value": 288, "unit": "L/h"}, {"measurement": "V C, volume of central compartment, SIR median", "setting": "[3]; SIR", "value": 14.4, "unit": "L"}, {"measurement": "V PER1, volume of first peripheral compartment, SIR median", "setting": "[3]; SIR", "value": 102, "unit": "L"}, {"measurement": "Interindividual variability on CLINT,GW, NONMEM estimate", "setting": "[3]; exponential IIV model", "value": 2.1}, {"measurement": "Interindividual variability on CLINT,H, NONMEM estimate", "setting": "[3]; exponential IIV model", "value": 0.25}, {"measurement": "Interindividual variability on K a, NONMEM estimate", "setting": "[3]; exponential IIV model", "value": 0.42}, {"measurement": "Interindividual variability on V PER1, NONMEM estimate", "setting": "[3]; exponential IIV model", "value": 0.045}, {"measurement": "Interindividual variability on CLINT,GW, SIR median", "setting": "[3]; exponential IIV model, SIR", "value": 2.0}, {"measurement": "Interindividual variability on CLINT,H, SIR median", "setting": "[3]; exponential IIV model, SIR", "value": 0.26}, {"measurement": "Interindividual variability on K a, SIR median", "setting": "[3]; exponential IIV model, SIR", "value": 0.44}, {"measurement": "Interindividual variability on V PER1, SIR median", "setting": "[3]; exponential IIV model, SIR", "value": 0.046}, {"measurement": "K a, absorption rate constant, NONMEM mean θ estimate", "setting": "[3]; final model", "value": 1.76, "unit": "h⁻¹"}, {"measurement": "V PER2, volume of second peripheral compartment, NONMEM mean θ estimate", "setting": "[3]; final model", "value": 180, "unit": "L"}, {"measurement": "V C, volume of central compartment, NONMEM mean θ estimate", "setting": "[3]; final model", "value": 14.4, "unit": "L"}, {"measurement": "V PER1, volume of first peripheral compartment, NONMEM mean θ estimate", "setting": "[3]; final model", "value": 102, "unit": "L"}, {"measurement": "CLINT,GW, intrinsic gut wall clearance, NONMEM mean θ estimate", "setting": "[3]; final model", "value": 1.19, "unit": "L/h"}, {"measurement": "CLINT,H, intrinsic hepatic clearance, NONMEM mean θ estimate", "setting": "[3]; final model", "value": 301, "unit": "L/h"}, {"measurement": "Total hepatic clearance of S-ketamine", "setting": "[3]; placebo phase, well-stirred model", "value": 71, "unit": "L/h"}, {"measurement": "C max, NCA results", "setting": "[1]; S-ketamine i.v. placebo-phase", "value": 32, "unit": "ng/mL"}, {"measurement": "C max, NCA results", "setting": "[1]; S-ketamine p.o. placebo-phase", "value": 9.9, "unit": "ng/mL"}, {"measurement": "AUC, NCA results", "setting": "[1]; S-ketamine p.o. placebo-phase", "value": 21, "unit": "ng·h/mL"}, {"measurement": "C max, NCA results", "setting": "[1]; [7]", "value": 17, "unit": "ng/mL"}, {"measurement": "AUC, NCA results", "setting": "[1]; [7]", "value": 54, "unit": "ng·h/mL"}, {"measurement": "Share of S-ketamine metabolized to norketamine in vivo", "setting": "[4]", "value": "~ 80%"}, {"measurement": "F met, true value for S-ketamine to norketamine metabolism", "setting": "[4]; humans, set to 1 in the model", "value": "b Should be considered as apparent rather than absolute values, as F met was set to 1 but true value of F met = 0.80 in humans for S‐ketamine to norketamine metabolism."}, {"measurement": "Intrinsic hepatic clearance of S-ketamine", "setting": "CYP2B6 [5]", "value": 113, "unit": "L/h"}, {"measurement": "Total hepatic clearance of S-ketamine", "setting": "CYP2B6 [5]; well-stirred model", "value": 60, "unit": "L/h"}]}
{"smiles": "Clc1ccccc1CN1CCc2sccc2C1", "note": "[Ticlopidine, ticlopidine]", "values": [{"measurement": "f u,GW, unbound drug fraction in the gut wall", "setting": "[2]", "value": 1}, {"measurement": "V C, volume of central compartment, SIR median", "setting": "[3]; SIR", "value": 50.8, "unit": "L"}, {"measurement": "V PER1, volume of first peripheral compartment, SIR median", "setting": "[3]; SIR", "value": 208.7, "unit": "L"}, {"measurement": "V C, volume of central compartment, NONMEM mean θ estimate", "setting": "[3]; final model", "value": 50.3, "unit": "L"}, {"measurement": "V PER1, volume of first peripheral compartment, NONMEM mean θ estimate", "setting": "[3]; final model", "value": 191, "unit": "L"}, {"measurement": "K a,TIC, absorption rate constant, fixed to a published value", "setting": "[4]", "value": "3.3 (FIXED) /h"}, {"measurement": "K a,TIC, absorption rate constant, fixed to a published value", "setting": "[4]; listed as ticlopidine", "value": 3.3, "unit": "h⁻¹"}, {"measurement": "Ticlopidine half-life after multiple dosing", "setting": "[4]", "value": "increased"}]}
{"smiles": "CNC1(c2ccccc2Cl)CCCCC1=O", "note": "(stereo not drawn) [ketamine]", "values": [{"measurement": "Fraction of ketamine metabolized by hepatic CYP2B6", "setting": "CYP2B6 [6]", "value": "around 60%"}, {"measurement": "Bioavailability after oral administration", "setting": "[4]; extensive first-pass metabolism", "value": "~ 17%"}]}
